Key:
[1] = xn = mol fraction of the nth substance listed; details: 101 kPa, Liquid, Vibrating tube method
[2] = 101 kPa, Liquid, Vibrating tube method

CC(C)NC(C)C [diisopropylamine] + CCO
mass density [kg/m3], [1]
Details | 293.15 K | 298.15 K | 303.15 K | 313.15 K
x1 = 0.0808 | 788.65 | 783.48 | 777.89 | 767.17
x1 = 0.1601 | 784.61 | 779.32 | 773.64 | 762.87
x1 = 0.2386 | 779.98 | 774.56 | 768.86 | 758.28
x1 = 0.3497 | 772.63 | 767.12 | 761.5 | 751.13
x1 = 0.4411 | 766.01 | 760.55 | 755.15 | 744.76
x1 = 0.5532 | 757.4 | 752.37 | 747.04 | 736.47
x1 = 0.65 | 749.49 | 744.83 | 739.74 | 728.89
x1 = 0.7395 | 742.16 | 737.7 | 732.71 | 721.68
x1 = 0.8478 | 733.27 | 728.73 | 723.74 | 712.63
x1 = 0.9385 | 725.8 | 720.86 | 715.91 | 704.95
x1 = 1 | 720.89 | 715.35 | 710.23 | 699.71

CCCCO [butan-1-ol] + CC(C)NC(C)C
[1], x2 = 0
Details | mass density [kg/m3]
293.15 K | 809.78
298.15 K | 806.05
303.15 K | 802.03
313.15 K | 794.12

CCCO [propan-1-ol]
[2]
Details | mass density [kg/m3]
293.15 K | 800.03
298.15 K | 797.81
303.15 K | 795.05
313.15 K | 787.95

CCCCO [butan-1-ol]
[2]
Details | mass density [kg/m3]
293.15 K | 809.78
298.15 K | 806.05
303.15 K | 802.03
313.15 K | 794.12

CO [methanol]
[2]
Details | mass density [kg/m3]
293.15 K | 791.72
298.15 K | 787.35
303.15 K | 782.24
313.15 K | 772.73

CC(C)NC(C)C [diisopropylamine]
[2]
Details | mass density [kg/m3]
293.15 K | 720.89
298.15 K | 715.35
303.15 K | 710.23
313.15 K | 699.71

CC(C)NC(C)C [diisopropylamine] + CCCCO
mass density [kg/m3], [1]
Details | 293.15 K | 298.15 K | 303.15 K | 313.15 K
x1 = 0.0815 | 804.64 | 800.71 | 796.89 | 789.72
x1 = 0.1611 | 798.64 | 794.65 | 790.84 | 783.86
x1 = 0.2404 | 792.1 | 788 | 784.11 | 777.07
x1 = 0.3496 | 782.52 | 778.41 | 774.3 | 767.06
x1 = 0.44 | 774.49 | 770.21 | 766.09 | 758.54
x1 = 0.56 | 763.71 | 759.1 | 754.95 | 747.2
x1 = 0.6499 | 755.59 | 750.61 | 746.56 | 738.57
x1 = 0.74 | 747.35 | 741.97 | 737.86 | 729.62
x1 = 0.8484 | 736.91 | 731.98 | 727 | 718.21
x1 = 0.9384 | 727.64 | 721.96 | 717.35 | 707.61
x1 = 1 | 720.89 | 715.35 | 710.23 | 699.71

CCO [ethanol] + CC(C)NC(C)C
[1], x2 = 0
Details | mass density [kg/m3]
293.15 K | 792.17
298.15 K | 786.71
303.15 K | 781.3
313.15 K | 771.14

CC(C)NC(C)C [diisopropylamine] + CCCCCO
mass density [kg/m3], [1]
Details | 293.15 K | 298.15 K | 303.15 K | 313.15 K
x1 = 0.0815 | 809.89 | 805.62 | 801.64 | 794.78
x1 = 0.16 | 804.18 | 799.78 | 795.61 | 788.52
x1 = 0.2392 | 797.77 | 793.23 | 788.98 | 780.98
x1 = 0.35 | 787.88 | 783.17 | 778.74 | 769.75
x1 = 0.4401 | 779.23 | 774.43 | 769.93 | 760.48
x1 = 0.5597 | 767.21 | 762.29 | 757.69 | 748.46
x1 = 0.6498 | 757.9 | 752.85 | 748.14 | 739.55
x1 = 0.7356 | 748.9 | 743.79 | 738.95 | 730.94
x1 = 0.8497 | 736.82 | 731.52 | 726.57 | 718.73
x1 = 0.9379 | 727.48 | 722.03 | 716.97 | 708.08
x1 = 1 | 720.89 | 715.35 | 710.23 | 699.71

CCCO [propan-1-ol] + CC(C)NC(C)C
[1], x2 = 0
Details | mass density [kg/m3]
293.15 K | 800.03
298.15 K | 797.81
303.15 K | 795.05
313.15 K | 787.95

CC(C)NC(C)C [diisopropylamine] + CCCO
mass density [kg/m3], [1]
Details | 293.15 K | 298.15 K | 303.15 K | 313.15 K
x1 = 0.0813 | 796.38 | 793.94 | 791.19 | 784.48
x1 = 0.1608 | 791.55 | 788.58 | 785.66 | 779.04
x1 = 0.2398 | 785.63 | 782.57 | 779.21 | 772.45
x1 = 0.3497 | 777.13 | 773.41 | 769.55 | 762.48
x1 = 0.4398 | 769.26 | 765.67 | 761.55 | 754.19
x1 = 0.5546 | 760.03 | 755.85 | 751.48 | 743.87
x1 = 0.6487 | 752.32 | 747.75 | 743.28 | 735.48
x1 = 0.7383 | 744.72 | 740.05 | 735.49 | 727.35
x1 = 0.8491 | 735.16 | 730.09 | 725.47 | 716.62
x1 = 0.9395 | 726.79 | 721.53 | 716.61 | 706.82
x1 = 1 | 720.89 | 715.35 | 710.23 | 699.71

CCO [ethanol]
[2]
Details | mass density [kg/m3]
293.15 K | 792.17
298.15 K | 786.71
303.15 K | 781.3
313.15 K | 771.14

CC(C)NC(C)C [diisopropylamine] + CO
mass density [kg/m3], [1]
Details | 293.15 K | 298.15 K | 303.15 K | 313.15 K
x1 = 0.0808 | 789.98 | 785.35 | 779.68 | 768.72
x1 = 0.1599 | 786.75 | 781.66 | 776.01 | 764.23
x1 = 0.2399 | 782.33 | 777.02 | 771.2 | 758.93
x1 = 0.3477 | 774.9 | 769.38 | 763.6 | 751.16
x1 = 0.4444 | 767.44 | 761.76 | 756.06 | 744.11
x1 = 0.5563 | 757.92 | 752.29 | 746.8 | 735.46
x1 = 0.6507 | 749.84 | 744.22 | 738.78 | 727.96
x1 = 0.7388 | 742.2 | 736.62 | 731.3 | 720.89
x1 = 0.8482 | 732.94 | 727.37 | 722.19 | 712.05
x1 = 0.94 | 725.56 | 719.98 | 714.87 | 704.62
x1 = 1 | 720.89 | 715.35 | 710.23 | 699.71

CCCCCO [pentan-1-ol]
[2]
Details | mass density [kg/m3]
293.15 K | 814.8
298.15 K | 810.82
303.15 K | 807.07
313.15 K | 799.4

CO [methanol] + CC(C)NC(C)C
[1], x2 = 0
Details | mass density [kg/m3]
293.15 K | 791.72
298.15 K | 787.35
303.15 K | 782.24
313.15 K | 772.73

CCCCCO [pentan-1-ol] + CC(C)NC(C)C
[1], x2 = 0
Details | mass density [kg/m3]
293.15 K | 814.8
298.15 K | 810.82
303.15 K | 807.07
313.15 K | 799.4

— the NIST ThermoML archive (doi:10.1016/j.tca.2011.05.006)
